# Reference: ChEMBL document CHEMBL1127909, “Tyrosinase inhibitory flavonoids fromheterotheca inuloides and their structural functions” (Bioorg Med Chem Lett, 1994)
# What was measured:
# [1] = test system: Tyrosinase (Agaricus bisporus); assay: Dose required for inhibitory activity against oxidation of L-DOPA by mushroom tyrosinase
# [2] = target: T1, Tyrosinase (Homo sapiens) (UniProt P14679); assay: Percent inhibition of mushroom tyrosinase at concentration of 45 ug/ml
# T1 sequence (whole entry): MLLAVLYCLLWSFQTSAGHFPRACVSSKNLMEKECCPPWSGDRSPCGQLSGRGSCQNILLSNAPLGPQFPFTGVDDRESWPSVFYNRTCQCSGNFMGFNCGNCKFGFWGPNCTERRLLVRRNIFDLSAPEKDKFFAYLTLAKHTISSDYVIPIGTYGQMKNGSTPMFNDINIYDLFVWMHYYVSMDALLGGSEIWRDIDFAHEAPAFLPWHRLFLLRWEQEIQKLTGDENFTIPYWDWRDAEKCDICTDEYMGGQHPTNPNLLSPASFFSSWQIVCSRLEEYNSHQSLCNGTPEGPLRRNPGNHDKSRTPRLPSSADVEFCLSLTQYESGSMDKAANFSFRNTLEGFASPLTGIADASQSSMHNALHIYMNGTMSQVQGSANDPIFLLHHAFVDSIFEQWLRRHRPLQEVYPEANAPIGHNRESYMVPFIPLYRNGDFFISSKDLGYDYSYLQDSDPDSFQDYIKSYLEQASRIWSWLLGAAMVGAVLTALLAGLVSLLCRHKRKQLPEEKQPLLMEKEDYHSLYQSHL
# [3] = target: T1, Tyrosinase (Homo sapiens); assay: Percent inhibition of mushroom tyrosinase at concentration of 18 ug/ml
SMILES,ID50 [1] [µg/mL],inhibition [2] [%],inhibition [3] [%]
O=C(/C=C/c1ccc(O)cc1)OC[C@@H]1O[C@H](Oc2cc(O)c3c(=O)c(O)c(-c4ccc(O)cc4)oc3c2)[C@@H](O)[C@H](O)[C@H]1O,0.39,,
COc1cc(-c2oc3cc(O[C@H]4O[C@@H](COC(=O)/C=C/c5ccc(O)cc5)[C@H](O)[C@@H](O)[C@@H]4O)cc(O)c3c(=O)c2O)ccc1O,0.44,,
O=c1c(O)c(-c2ccc(O)c(O)c2)oc2cc(O)cc(O)c12,,80,40
